According to patent US20230085307A1, “PYRIDAZINONE COMPOUND AND HERBICIDE” (NISSAN CHEMICAL CORPORATION, priority 2019, published 2023):

Assays:
windgrass [1] = assay: Test Example 5: herbicidal effect by foliage application, plastic box (Table 20, symbol L); type: in vivo, windgrass (Apera spica-venti); settings: 320 g/ha, foliage application after 14-day growth, evaluated three weeks after application
Summary of the method: (§1)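 Plants were sown into sterilized diluvial soil under about 1.5 cm cover and kept in a greenhouse at 25° C. to 30° C. Fourteen days on, foliage received an even spray of the diluted emulsion. Herbicidal or crop effect was judged three weeks afterwards.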

velvetleaf [2] = assay: Test Example 4: herbicidal effect by soil treatment (Table 19, symbol M); type: in vivo, velvetleaf (Abutilon theophrasti); settings: amount of applied herbicide 320 g/ha
Summary of the method: (§2)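 Pre-emergence style soil spray: seeds under ~1.5 cm sterilized diluvial soil received a uniform coat of emulsion diluted to the predetermined herbicide amount. Greenhouse 25–30° C; readout at week three on previously defined criteria.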

windgrass [3] = assay: Test Example 4: herbicidal effect by soil treatment (Table 19, symbol L); type: in vivo, windgrass (Apera spica-venti); settings: amount of applied herbicide 320 g/ha
Summary of the method: as §2

rice flat sedge = assay: Test Example 3: herbicidal effect by foliage application, Wagner pot (Table 18, symbol E); type: in vivo, rice flat sedge (Cyperus iria); settings: 320 g/ha
Summary of the method: (§3)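 Plants were sown in alluvial soil held under 0.1–0.5 cm standing water and grown 14 days in a greenhouse at 25–30 °C. An emulsifiable formulation, water-diluted to the set dose, was then sprayed onto the foliage, and effects were scored three weeks later using previously defined criteria.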

barnyard grass [4] = assay: Test Example 5: herbicidal effect by foliage application, plastic box (Table 20, symbol H); type: in vivo, barnyard grass (Echinochloa crus-galli); settings: 320 g/ha, foliage application after 14-day growth, evaluated three weeks after application
Summary of the method: as §1

southern crabgrass [5] = assay: Test Example 4: herbicidal effect by soil treatment (Table 19, symbol F); type: in vivo, southern crabgrass (Digitaria ciliaris); settings: amount of applied herbicide 320 g/ha
Summary of the method: as §2

southern crabgrass [6] = assay: Test Example 5: herbicidal effect by foliage application, plastic box (Table 20, symbol F); type: in vivo, southern crabgrass (Digitaria ciliaris); settings: 320 g/ha, foliage application after 14-day growth, evaluated three weeks after application
Summary of the method: as §1

velvetleaf [7] = assay: Test Example 5: herbicidal effect by foliage application, plastic box (Table 20, symbol M); type: in vivo, velvetleaf (Abutilon theophrasti); settings: 320 g/ha, foliage application after 14-day growth, evaluated three weeks after application
Summary of the method: as §1

green foxtail [8] = assay: Test Example 4: herbicidal effect by soil treatment (Table 19, symbol G); type: in vivo, green foxtail (Setaria viridis); settings: amount of applied herbicide 320 g/ha
Summary of the method: as §2

persian speedwell = assay: Test Example 4: herbicidal effect by soil treatment (Table 19, symbol R); type: in vivo, Persian speedwell (Veronica persica); settings: amount of applied herbicide 320 g/ha
Summary of the method: as §2

wild oat = assay: Test Example 5: herbicidal effect by foliage application, plastic box (Table 20, symbol I); type: in vivo, wild oat (Avena fatua); settings: 320 g/ha, foliage application after 14-day growth, evaluated three weeks after application
Summary of the method: as §1

Japanese bulrush = assay: Test Example 1: herbicidal activity, application before weed generation under submerged conditions (Table 16, symbol B); type: in vivo, Japanese bulrush (Schoenoplectus juncoides); settings: amount of applied herbicide 320 g/ha
Summary of the method: (§4)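 Emulsion formulation, water-diluted to set dose, was put onto the flooded surface (4 cm depth, alluvial soil) the same day weeds were sown and 2.5-leaf rice transplanted. After 3 weeks at 25-30 °C under glass, each species was rated 0 (≤5% kill) to 5 (≥90% kill).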

Italian ryegrass = assay: Test Example 4: herbicidal effect by soil treatment (Table 19, symbol K); type: in vivo, Italian ryegrass (Lolium multiflorum); settings: amount of applied herbicide 320 g/ha
Summary of the method: as §2

redroot pigweed = assay: Test Example 5: herbicidal effect by foliage application, plastic box (Table 20, symbol N); type: in vivo, redroot pigweed (Amaranthus retroflexus); settings: 320 g/ha, foliage application after 14-day growth, evaluated three weeks after application
Summary of the method: as §1

green foxtail [9] = assay: Test Example 5: herbicidal effect by foliage application, plastic box (Table 20, symbol G); type: in vivo, green foxtail (Setaria viridis); settings: 320 g/ha, foliage application after 14-day growth, evaluated three weeks after application
Summary of the method: as §1

barnyard grass [10] = assay: Test Example 3: herbicidal effect by foliage application, Wagner pot (Table 18, symbol H); type: in vivo, barnyard grass (Echinochloa crus-galli); settings: 320 g/ha
Summary of the method: as §3

blackgrass = assay: Test Example 5: herbicidal effect by foliage application, plastic box (Table 20, symbol J); type: in vivo, blackgrass (Alopecurus myosuroides); settings: 320 g/ha, foliage application after 14-day growth, evaluated three weeks after application
Summary of the method: as §1

late watergrass = assay: Test Example 1: herbicidal activity, application before weed generation under submerged conditions (Table 16, symbol A); type: in vivo, late watergrass (Echinochloa oryzicola); settings: amount of applied herbicide 320 g/ha
Summary of the method: as §4

| SMILES | herbicidal effect on L: windgrass (evaluation grade 0-5) (windgrass [1]) | Herbicidal effect by soil treatment, M: velvetleaf (velvetleaf [2]) | Herbicidal effect by soil treatment, L: windgrass (windgrass [3]) | herbicidal effect on rice flat sedge (E) (rice flat sedge) | herbicidal effect on H: barnyard grass (evaluation grade 0-5) (barnyard grass [4]) | Herbicidal effect by soil treatment, F: southern crabgrass (southern crabgrass [5]) | herbicidal effect on F: southern crabgrass (evaluation grade 0-5) (southern crabgrass [6]) | herbicidal effect on M: velvetleaf (evaluation grade 0-5) (velvetleaf [7]) | Herbicidal effect by soil treatment, G: green foxtail (green foxtail [8]) | Herbicidal effect by soil treatment, R: persian speedwell (persian speedwell) | herbicidal effect on I: wild oat (evaluation grade 0-5) (wild oat) | Herbicidal effect, B: Japanese bulrush (Japanese bulrush) | Herbicidal effect by soil treatment, K: Italian ryegrass (Italian ryegrass) | herbicidal effect on N: redroot pigweed (evaluation grade 0-5) (redroot pigweed) | herbicidal effect on G: green foxtail (evaluation grade 0-5) (green foxtail [9]) | herbicidal effect on barnyard grass (H) (barnyard grass [10]) | herbicidal effect on J: blackgrass (evaluation grade 0-5) (blackgrass) | Herbicidal effect, A: late watergrass (late watergrass) |
| --- | --- | --- | --- | --- | --- | --- | --- | --- | --- | --- | --- | --- | --- | --- | --- | --- | --- | --- |
| CCCC(=O)Oc1c(C)nn(C)c(=O)c1-c1c(-c2ccc(OC)cc2)sc2c(Cl)cccc12 [4-024] | 4 (Herbicidal rate of 70% or more and less than 90%) | 0 (Herbicidal rate of 5% or less (almost no effect)) | 0 (Herbicidal rate of 5% or less (almost no effect)) | 5 (Herbicidal rate of 90% or more (almost completely withered)) | 4 (Herbicidal rate of 70% or more and less than 90%) | 0 (Herbicidal rate of 5% or less (almost no effect)) | 1 (Herbicidal rate of 5% or more and less than 20%) | 4 (Herbicidal rate of 70% or more and less than 90%) | 2 (Herbicidal rate of 20% or more and less than 40%) | 0 (Herbicidal rate of 5% or less (almost no effect)) | 0 (Herbicidal rate of 5% or less (almost no effect)) | 2 (Herbicidal rate of 20% or more and less than 40%) | 0 (Herbicidal rate of 5% or less (almost no effect)) | 5 (Herbicidal rate of 90% or more (almost completely withered)) | 4 (Herbicidal rate of 70% or more and less than 90%) | 4 (Herbicidal rate of 70% or more and less than 90%) | 0 (Herbicidal rate of 5% or less (almost no effect)) | 3 (Herbicidal rate of 40% or more and less than 70%) |
| CCCC(=O)Oc1c(C)nn(C)c(=O)c1-c1c(-c2ccccc2OCC)sc2c(Cl)cccc12 [4-026] | 5 (Herbicidal rate of 90% or more (almost completely withered)) | 0 (Herbicidal rate of 5% or less (almost no effect)) | 0 (Herbicidal rate of 5% or less (almost no effect)) | 5 (Herbicidal rate of 90% or more (almost completely withered)) | 5 (Herbicidal rate of 90% or more (almost completely withered)) | 3 (Herbicidal rate of 40% or more and less than 70%) | 3 (Herbicidal rate of 40% or more and less than 70%) | 5 (Herbicidal rate of 90% or more (almost completely withered)) | 3 (Herbicidal rate of 40% or more and less than 70%) | 2 (Herbicidal rate of 20% or more and less than 40%) | 0 (Herbicidal rate of 5% or less (almost no effect)) | 3 (Herbicidal rate of 40% or more and less than 70%) | 0 (Herbicidal rate of 5% or less (almost no effect)) | 5 (Herbicidal rate of 90% or more (almost completely withered)) | 5 (Herbicidal rate of 90% or more (almost completely withered)) | 5 (Herbicidal rate of 90% or more (almost completely withered)) | 3 (Herbicidal rate of 40% or more and less than 70%) | 5 (Herbicidal rate of 90% or more (almost completely withered)) |
| CCCC(=O)Oc1c(C)nn(C)c(=O)c1-c1c(-c2ccc(C#N)cc2)sc2c(Cl)cccc12 [4-032] | 4 (Herbicidal rate of 70% or more and less than 90%) | 0 (Herbicidal rate of 5% or less (almost no effect)) | 0 (Herbicidal rate of 5% or less (almost no effect)) | 5 (Herbicidal rate of 90% or more (almost completely withered)) | 0 (Herbicidal rate of 5% or less (almost no effect)) | 0 (Herbicidal rate of 5% or less (almost no effect)) | 0 (Herbicidal rate of 5% or less (almost no effect)) | 4 (Herbicidal rate of 70% or more and less than 90%) | 0 (Herbicidal rate of 5% or less (almost no effect)) | 3 (Herbicidal rate of 40% or more and less than 70%) | 0 (Herbicidal rate of 5% or less (almost no effect)) | 2 (Herbicidal rate of 20% or more and less than 40%) | 0 (Herbicidal rate of 5% or less (almost no effect)) | 5 (Herbicidal rate of 90% or more (almost completely withered)) | 0 (Herbicidal rate of 5% or less (almost no effect)) | 4 (Herbicidal rate of 70% or more and less than 90%) | 0 (Herbicidal rate of 5% or less (almost no effect)) | 0 (Herbicidal rate of 5% or less (almost no effect)) |
| CCCC(=O)Oc1c(C)nn(C)c(=O)c1-c1c(-c2ccc(F)cc2OCC)sc2c(Cl)cccc12 [4-036] | 4 (Herbicidal rate of 70% or more and less than 90%) | 2 (Herbicidal rate of 20% or more and less than 40%) | 0 (Herbicidal rate of 5% or less (almost no effect)) | 5 (Herbicidal rate of 90% or more (almost completely withered)) | 5 (Herbicidal rate of 90% or more (almost completely withered)) | 4 (Herbicidal rate of 70% or more and less than 90%) | 4 (Herbicidal rate of 70% or more and less than 90%) | 5 (Herbicidal rate of 90% or more (almost completely withered)) | 3 (Herbicidal rate of 40% or more and less than 70%) | 2 (Herbicidal rate of 20% or more and less than 40%) | 0 (Herbicidal rate of 5% or less (almost no effect)) | 3 (Herbicidal rate of 40% or more and less than 70%) | 0 (Herbicidal rate of 5% or less (almost no effect)) | 5 (Herbicidal rate of 90% or more (almost completely withered)) | 5 (Herbicidal rate of 90% or more (almost completely withered)) | 5 (Herbicidal rate of 90% or more (almost completely withered)) | 3 (Herbicidal rate of 40% or more and less than 70%) | 4 (Herbicidal rate of 70% or more and less than 90%) |
